Experimental findings from BindingDB's records for doi:10.1021/ja058636j (Purdue University, 2006) are described below.

Holding throughout (test): Enzyme Inhibition Measurements
Settings in all cases: pH 4.5; 37 °C

One assay concerns the target Cathepsin D (Homo sapiens, UniProt P07339). The protocol: (§1) Enzyme activities were assayed by monitoring the hydrolysis of substrate in the presence or absence of inhibitor compounds. The hydrolysis was recorded as the increase in fluorescence intensity over a 10 min time period. […] The Ki was calculated by using Ki = IC50/ (1 + [S]/Km), and a Km value determined according to Michaelis-Menten.

Another assay has as its target Beta-secretase 1 (Homo sapiens, UniProt P56817). Here is the method:
as §1

A further assay has as its target T1, Beta-secretase 2 (Homo sapiens, UniProt Q9Y5Z0).
T1 sequence (Q9Y5Z0 whole entry): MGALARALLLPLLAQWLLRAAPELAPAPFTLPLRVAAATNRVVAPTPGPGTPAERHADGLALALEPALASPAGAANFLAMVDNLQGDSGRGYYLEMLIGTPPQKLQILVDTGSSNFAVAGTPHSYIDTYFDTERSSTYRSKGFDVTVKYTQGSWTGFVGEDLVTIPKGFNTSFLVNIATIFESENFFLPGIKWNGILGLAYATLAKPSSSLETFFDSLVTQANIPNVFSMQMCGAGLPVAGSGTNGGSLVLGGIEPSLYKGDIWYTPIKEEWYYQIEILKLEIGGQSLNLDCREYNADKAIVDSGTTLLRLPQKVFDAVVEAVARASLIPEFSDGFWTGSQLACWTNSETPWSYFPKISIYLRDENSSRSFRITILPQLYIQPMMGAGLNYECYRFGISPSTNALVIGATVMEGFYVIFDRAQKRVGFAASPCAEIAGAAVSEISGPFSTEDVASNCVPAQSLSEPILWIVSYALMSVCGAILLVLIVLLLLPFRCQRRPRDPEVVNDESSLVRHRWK
Here is the method: as §1

A word on the Ki: it is a dissociation constant, usually derived from enzyme kinetics or from competition with a known ligand. High values mean weaker binding, low ones tighter binding.

SMILES strings stand for the structures.

Chain of Cathepsin D (P07339 65-162 limits assumed): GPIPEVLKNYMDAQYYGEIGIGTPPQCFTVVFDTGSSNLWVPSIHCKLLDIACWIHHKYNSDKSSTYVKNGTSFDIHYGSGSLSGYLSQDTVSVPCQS
Chain of Cathepsin D (P07339 169-412 limits assumed): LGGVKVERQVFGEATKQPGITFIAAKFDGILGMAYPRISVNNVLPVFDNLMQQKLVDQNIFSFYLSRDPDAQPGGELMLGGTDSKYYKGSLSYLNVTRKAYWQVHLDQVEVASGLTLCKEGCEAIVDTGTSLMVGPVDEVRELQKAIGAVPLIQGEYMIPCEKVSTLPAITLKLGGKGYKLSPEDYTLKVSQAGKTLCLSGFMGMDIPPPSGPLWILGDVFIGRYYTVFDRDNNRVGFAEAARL
Chain of Beta-secretase 1 (P56817 whole entry): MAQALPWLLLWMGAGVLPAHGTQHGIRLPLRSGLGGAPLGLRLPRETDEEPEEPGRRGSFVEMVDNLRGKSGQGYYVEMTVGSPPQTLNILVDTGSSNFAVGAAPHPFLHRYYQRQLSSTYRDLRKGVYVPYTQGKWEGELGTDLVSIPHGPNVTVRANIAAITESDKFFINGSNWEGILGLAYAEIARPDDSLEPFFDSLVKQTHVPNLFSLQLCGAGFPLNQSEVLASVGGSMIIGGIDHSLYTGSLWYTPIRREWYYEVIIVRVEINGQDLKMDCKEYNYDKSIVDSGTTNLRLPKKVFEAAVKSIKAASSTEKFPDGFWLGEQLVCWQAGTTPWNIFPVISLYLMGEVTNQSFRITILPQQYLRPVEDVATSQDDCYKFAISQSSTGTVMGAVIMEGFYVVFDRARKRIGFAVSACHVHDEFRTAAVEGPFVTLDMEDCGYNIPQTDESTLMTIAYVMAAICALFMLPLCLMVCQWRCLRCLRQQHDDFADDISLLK

For `Cc1nc(COC(=O)N[C@@H](CS(C)(=O)=O)C(=O)N[C@@H](CC(C)C)[C@@H](O)C[C@@H](C)C(=O)N[C@H](C(=O)NCC(C)C)C(C)C)c(C)o1` [N2-[(2R,4S,5S)-5-{[N-{[(2,5-dimethyl-1,3-oxazol-4-yl)methoxy]carbonyl}-3-(methylsulfonyl)-L-alanyl]amino}-4-hydroxy-2,7-dimethyloctanoyl]-N-(2-methylpropyl)-L-valinamide], the Ki at Cathepsin D was determined as 304 nM; at Beta-secretase 1, 0.12 nM; at Beta-secretase 2 it was 458 nM.
For the molecule `CSCC[C@H](NC(=O)OCn1nc(C)cc1C)C(=O)N[C@@H](CC(C)C)[C@@H](O)C[C@@H](C)C(=O)N[C@H](C(=O)NCc1ccccc1)C(C)C` [(3,5-dimethyl-1H-pyrazol-1-yl)methyl N-[(1S)-1-{[(1R,3S,4S)-1-{[(1S)-1-(benzylcarbamoyl)-2-methylpropyl]carbamoyl}-3-hydroxy-1,6-dimethylheptan-4-yl]carbamoyl}-3-(methylsulfanyl)propyl]carbamate], the inhibition constant Ki on Cathepsin D was 25 nM; at Beta-secretase 1 it was 14 nM.
Turning to `CSC[C@H](NC(=O)OCn1nc(C)cc1C)C(=O)N[C@@H](CC(C)C)[C@@H](O)C[C@@H](C)C(=O)N[C@H](C(=O)NCC(C)C)C(C)C` [(3,5-dimethyl-1H-pyrazol-1-yl)methyl N-[(1R)-1-{[(1R,3S,4S)-3-hydroxy-1,6-dimethyl-1-{[(1S)-2-methyl-1-[(2-methylpropyl)carbamoyl]propyl]carbamoyl}heptan-4-yl]carbamoyl}-2-(methylsulfanyl)ethyl]carbamate], the Ki at Cathepsin D is 15 nM; on Beta-secretase 1, 4.4 nM; on Beta-secretase 2, 161 nM.
